Laboratory results published in ChEMBL document CHEMBL1153107, “A highly atom economic, chemo-, regio- and stereoselective synthesis and evaluation of spiro-pyrrolothiazoles as antitubercular agents” (2010).
Converted amounts (≈) assume the structure as drawn.

Each compound was assayed on Mycobacterium tuberculosis (assay: Antitubercular activity against multidrug-resistant Mycobacterium tuberculosis).
Format: functional

Structure (SMILES) | MIC [µM]
NC(=O)c1cnccn1 [PYRAZINAMIDE] | 406 (≈ 50 µg/mL)
CO[C@H]1/C=C/O[C@@]2(C)Oc3c(C)c(O)c4c(O)c(c(/C=N/N5CCN(C)CC5)c(O)c4c3C2=O)NC(=O)/C(C)=C\C=C\[C@H](C)[C@H](O)[C@@H](C)[C@@H](O)[C@@H](C)[C@H](OC(C)=O)[C@@H]1C [RIFAMPIN] | 3.8 (≈ 3.13 µg/mL)
CN1C/C(=C\c2ccc(Cl)cc2Cl)C(=O)[C@]2(C1)[C@H](c1ccc(Cl)cc1Cl)[C@@H]1CSCN1[C@@]21C(=O)Nc2ccc([N+](=O)[O-])cc21 | 0.6 (≈ 0.414 µg/mL)
NNC(=O)c1ccncc1 [ISONIAZID] | 11.4 (≈ 1.56 µg/mL)
CN1C/C(=C\c2ccc(Cl)cc2Cl)C(=O)[C@]2(C1)[C@H](c1ccc(Cl)cc1Cl)[C@@H]1CSCN1[C@@]21C(=O)Nc2ccc(Cl)cc21 | 2.4 (≈ 1.63 µg/mL)
CC[C@@H](CO)NCCN[C@@H](CC)CO [ETHAMBUTOL] | 61.2 (≈ 12.5 µg/mL)
CN1C/C(=C\c2ccc(F)cc2)C(=O)[C@]2(C1)[C@H](c1ccc(F)cc1)[C@@H]1CSCN1[C@@]21C(=O)Nc2ccc([N+](=O)[O-])cc21 | 1.4 (≈ 0.824 µg/mL)
CN1C/C(=C\c2ccc(Br)cc2)C(=O)[C@]2(C1)[C@H](c1ccc(Br)cc1)[C@@H]1CSCN1[C@@]21C(=O)Nc2ccc([N+](=O)[O-])cc21 | 2.3 (≈ 1.63 µg/mL)
CN1C/C(=C\c2ccc(F)cc2)C(=O)[C@]2(C1)[C@H](c1ccc(F)cc1)[C@@H]1CSCN1[C@@]21C(=O)Nc2ccc(Cl)cc21 | 2.8 (≈ 1.62 µg/mL)
CN1C/C(=C\c2ccccc2Cl)C(=O)[C@]2(C1)[C@H](c1ccccc1Cl)[C@@H]1CSCN1[C@@]21C(=O)Nc2ccc([N+](=O)[O-])cc21 | 2.6 (≈ 1.62 µg/mL)
